Data reported in patent publication US20240101572A1, “DIHYDROOXADIAZINONE COMPOUND AND PHARMACEUTICAL USE THEREOF” (Japan Tobacco Inc., priority 2022, published 2024).
Where two headings read alike, the source gives them in different places.

Legend:
[1] = target: full-length human PLD1 (Homo sapiens (Human), UniProt Q13393); experiment: Evaluation of human PLD1 enzyme inhibitory activity (Amplex Red / choline oxidase fluorescence); type: biochemical
Outline: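 Fluorescence read-out couples choline to Amplex Red via choline oxidase and peroxidase after a 60 min room-temperature reaction. Enzyme: FLAG-tagged full-length human PLD1 from Expi293F cells, anti-FLAG purified; substrate diheptanoyl phosphatidylcholine; HEPES pH 7.5 assay buffer with 0.01% NP-40, 0.1% BSA, 5% DMSO final.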

[2] = target: full-length human PLD2 (Homo sapiens (Human), UniProt O14939); experiment: Evaluation of human PLD2 enzyme inhibitory activity (Amplex Red / choline oxidase fluorescence); type: biochemical
Outline: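 Released choline was read by Amplex Red fluorescence coupled to choline oxidase and HRP after a 60 min room-temperature reaction. Substrate was diheptanoyl phosphatidylcholine, added as a 6 mmol/L solution, and enzyme was FLAG-tagged full-length human PLD2 from Expi293F, added as a 6 nmol/L solution. Buffer was 50 mM HEPES pH 7.5 with 5% final DMSO.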

[3] = full-length human PLD1 enzyme, read-out: PLD1 IC50
[4] = full-length human PLD2 enzyme, read-out: PLD2 IC50
[5] = column 1 of continuation tables 2-12 to 2-14, read-out: human PLD1 enzyme inhibitory activity IC50
[6] = column 2 of continuation tables 2-12 to 2-14, read-out: human PLD2 enzyme inhibitory activity IC50

full-length human PLD1, sequence (Q13393 other isoform, or with tags, fused parts or gaps): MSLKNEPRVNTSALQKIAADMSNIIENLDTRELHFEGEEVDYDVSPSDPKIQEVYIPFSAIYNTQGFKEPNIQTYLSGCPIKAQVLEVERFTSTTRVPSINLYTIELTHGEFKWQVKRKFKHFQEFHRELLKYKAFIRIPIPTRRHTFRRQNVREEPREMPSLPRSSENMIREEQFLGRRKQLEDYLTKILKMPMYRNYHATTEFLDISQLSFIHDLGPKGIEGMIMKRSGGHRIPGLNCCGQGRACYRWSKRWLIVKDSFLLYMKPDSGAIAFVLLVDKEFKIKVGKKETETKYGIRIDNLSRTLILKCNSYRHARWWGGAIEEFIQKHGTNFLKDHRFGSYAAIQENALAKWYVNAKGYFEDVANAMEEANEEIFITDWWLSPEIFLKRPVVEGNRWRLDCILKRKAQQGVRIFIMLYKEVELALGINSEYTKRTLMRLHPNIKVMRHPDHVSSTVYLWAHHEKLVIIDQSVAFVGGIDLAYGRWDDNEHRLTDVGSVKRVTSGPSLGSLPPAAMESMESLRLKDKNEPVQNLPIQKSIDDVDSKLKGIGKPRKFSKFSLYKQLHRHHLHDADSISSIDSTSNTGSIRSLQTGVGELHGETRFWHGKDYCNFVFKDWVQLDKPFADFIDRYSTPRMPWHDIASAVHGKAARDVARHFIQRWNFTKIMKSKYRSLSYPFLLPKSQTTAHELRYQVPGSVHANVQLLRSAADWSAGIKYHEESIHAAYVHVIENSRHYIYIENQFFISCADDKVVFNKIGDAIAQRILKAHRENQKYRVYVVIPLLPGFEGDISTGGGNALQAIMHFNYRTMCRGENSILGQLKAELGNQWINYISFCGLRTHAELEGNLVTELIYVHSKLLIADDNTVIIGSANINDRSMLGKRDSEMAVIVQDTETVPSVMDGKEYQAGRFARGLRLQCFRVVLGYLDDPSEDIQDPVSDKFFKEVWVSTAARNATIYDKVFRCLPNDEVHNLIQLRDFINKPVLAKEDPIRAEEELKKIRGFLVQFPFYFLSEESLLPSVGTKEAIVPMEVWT
full-length human PLD2, sequence (O14939 whole entry): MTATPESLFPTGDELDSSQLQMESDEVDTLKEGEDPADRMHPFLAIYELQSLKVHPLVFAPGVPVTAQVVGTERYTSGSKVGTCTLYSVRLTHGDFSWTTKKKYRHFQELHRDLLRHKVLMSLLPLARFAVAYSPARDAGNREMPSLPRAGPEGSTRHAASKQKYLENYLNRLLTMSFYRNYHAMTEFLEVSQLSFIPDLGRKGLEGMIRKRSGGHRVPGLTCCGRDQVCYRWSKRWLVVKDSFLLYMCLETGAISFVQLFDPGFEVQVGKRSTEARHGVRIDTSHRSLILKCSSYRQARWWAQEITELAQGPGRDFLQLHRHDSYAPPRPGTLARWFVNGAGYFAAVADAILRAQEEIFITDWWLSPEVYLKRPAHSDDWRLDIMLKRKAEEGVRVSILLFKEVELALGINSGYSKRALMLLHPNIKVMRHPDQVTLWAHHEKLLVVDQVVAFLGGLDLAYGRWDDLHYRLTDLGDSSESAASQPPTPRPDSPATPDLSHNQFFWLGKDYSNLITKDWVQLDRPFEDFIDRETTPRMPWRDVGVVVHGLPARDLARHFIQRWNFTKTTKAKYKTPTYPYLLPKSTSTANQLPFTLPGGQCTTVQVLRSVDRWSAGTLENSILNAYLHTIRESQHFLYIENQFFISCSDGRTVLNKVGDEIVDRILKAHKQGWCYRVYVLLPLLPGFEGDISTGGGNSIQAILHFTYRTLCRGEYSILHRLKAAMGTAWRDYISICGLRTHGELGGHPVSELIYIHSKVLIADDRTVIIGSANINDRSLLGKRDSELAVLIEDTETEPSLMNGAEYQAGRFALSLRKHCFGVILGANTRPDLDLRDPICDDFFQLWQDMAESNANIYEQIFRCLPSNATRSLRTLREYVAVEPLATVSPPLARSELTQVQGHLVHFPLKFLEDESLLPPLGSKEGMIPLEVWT

CNC(=O)C(=O)N[C@@H](C)C[C@H]1CC[C@]2(CC1)OC(=O)NN=C2c1ccccc1Br [Example 26]
IC50 [1, 3]: < 10 nM
IC50 [2, 4]: < 10 nM

CNC(=O)C(=O)N[C@@H](C)C[C@H]1CC[C@]2(CC1)OC(=O)NN=C2c1ccccc1SC [Example 74]
IC50 [1, 3]: < 10 nM
IC50 [2, 4]: < 10 nM

C[C@@H](C[C@H]1CC[C@]2(CC1)OC(=O)NN=C2c1cc(Cl)ccc1Cl)NC(=O)c1cn2ccccc2n1 [Example 324]
IC50 [1, 3]: 20 nM
IC50 [2, 4]: 22 nM

CNC(=O)C(=O)N[C@@H](C)C(C#N)N1CCC2(CC1)OC(=O)NN=C2c1ccc(F)cc1Br (mixture of isomers) [Example 2-010]
IC50 [1, 3]: 1010 nM
IC50 [2, 4]: 1260 nM

C[C@@H](CN1CCC2(CC1)OC(=O)NN=C2c1ccc(C(N)=O)cc1Br)NC(=O)c1cnn(C)c1 [Example 337]
IC50 [1, 3]: 74 nM
IC50 [2, 4]: 28 nM

C[C@@H](C[C@H]1CC[C@]2(CC1)OC(=O)NN=C2c1nccn1CC1CC1)NC(=O)c1cc(Cl)no1 [Example 83]
IC50 [1, 3]: 259 nM
IC50 [2, 4]: 221 nM

CNC(=O)/C=C/C(=O)N[C@@H](C)CN1CCC2(CC1)OC(=O)NN=C2c1cc(C#N)ccc1Br [Example 2-041]
IC50 [1, 3]: 148 nM
IC50 [2, 4]: 103 nM

CNC(=O)C(=O)N[C@@H](C)C[C@H]1CC[C@]2(CC1)OC(=O)NN=C2c1ncccc1Br [Example 2-013]
IC50 [1, 3]: 12 nM
IC50 [2, 4]: < 10 nM

Cc1cc(F)ccc1C1=NNC(=O)O[C@]12CC[C@@H](C[C@H](C)NC(=O)N1CC[C@@H](c3ccccc3)C1)CC2 [Example 138]
IC50 [1, 3]: 774 nM
IC50 [2, 4]: 1400 nM

CNC(=O)C(=O)N[C@@H](C)C[C@H]1CC[C@]2(CC1)OC(=O)NN=C2c1cnc(N2CC(F)(F)C2)cc1C [Example 228]
IC50 [1, 3]: 28 nM
IC50 [2, 4]: < 10 nM

C[C@@H](CN1CCC2(CC1)OC(=O)NN=C2c1ccc(C#N)cc1Br)NC(=O)c1cn(C)cn1 [Example 2-060]
IC50 [1, 3]: 27 nM
IC50 [2, 4]: 11 nM

[2H]C([2H])([2H])NC(=O)C(=O)N[C@@H](C)C[C@]1(C#N)CC[C@@]2(CC1)OC(=O)NN=C2c1cc(OC(F)F)c(F)cc1Br [Example 2-138]
IC50 [1, 5]: 14 nM
IC50 [2, 6]: < 10 nM

C[C@@H](C[C@]1(C#N)CC[C@@]2(CC1)OC(=O)NN=C2c1cc(C(F)(F)F)ccc1Br)NC(=O)c1cn(C)cn1 [Example 2-079]
IC50 [1, 3]: 11 nM
IC50 [2, 4]: 10 nM

CNC(=O)C(=O)N[C@@H](C)C[C@]1(C#N)CC[C@@]2(CC1)OC(=O)NN=C2c1ccc(OC(F)F)cc1Br [Example 2-067]
IC50 [1, 3]: 15 nM
IC50 [2, 4]: < 10 nM

CNC(=O)C(=O)N[C@@H](C)C[C@H]1CC[C@]2(CC1)OC(=O)NN=C2c1cc(Cl)ccc1I [Example 2-044]
IC50 [1, 3]: < 10 nM
IC50 [2, 4]: < 10 nM

Cc1ncccc1C1=NNC(=O)O[C@]12CC[C@@H](C[C@H](C)NC(=O)c1cc3ccccc3o1)CC2 [Example 104]
IC50 [1, 3]: 75 nM
IC50 [2, 4]: 217 nM

C[C@@H](C[C@H]1CC[C@]2(CC1)OC(=O)NN=C2c1cc(C#N)ccc1Br)NC(=O)c1ncon1 [Example 293]
IC50 [1, 3]: 127 nM
IC50 [2, 4]: 325 nM

CNC(=O)C(=O)N[C@@H](C)CN1CC[C@@]2(C[C@H]1C)OC(=O)NN=C2c1ccc(C#N)cc1Cl [Example 233]
IC50 [1, 3]: 1860 nM
IC50 [2, 4]: 1800 nM

CNC(=O)C(=O)N[C@@H](C)CC1CC[C@]2(C[C@@H]1F)OC(=O)NN=C2c1ccc(F)cc1Br (stereo partly shown) [Example 285]
IC50 [1, 3]: < 10 nM
IC50 [2, 4]: < 10 nM

Cc1cc(C(=O)N[C@@H](C)C[C@H]2CC[C@]3(CC2)OC(=O)NN=C3c2ccc(C#N)cc2Cl)[nH]n1 [Example 176]
IC50 [1, 3]: 29 nM
IC50 [2, 4]: 29 nM

Cc1cc(C(=O)N[C@@H](C)C[C@H]2CC[C@]3(CC2)OC(=O)NN=C3c2cccc(OC(F)F)c2Br)[nH]n1 [Example 307]
IC50 [1, 3]: 13 nM
IC50 [2, 4]: < 10 nM

CNC(=O)C(=O)N[C@@H](C)CN1CCC2(CC1)OC(=O)NN=C2c1cc(C(C)(C)O)ccc1Br [Example 2-034]
IC50 [1, 3]: 31 nM
IC50 [2, 4]: 10 nM

Cc1cc(C(=O)N[C@@H](C)CN2CCC3(CC2)OC(=O)NN=C3c2ccc(C#N)cc2C(F)(F)F)[nH]n1 [Example 326]
IC50 [1, 3]: 54 nM
IC50 [2, 4]: 38 nM

[2H]C([2H])([2H])NC(=O)C(=O)N[C@@H](C)C[C@]1(C#N)CC[C@@]2(CC1)OC(=O)NN=C2c1cc(F)ccc1Br [Example 2-133]
IC50 [1, 5]: 14 nM
IC50 [2, 6]: < 10 nM

CNC(=O)C(=O)N[C@@H](C)C[C@H]1CC[C@]2(CC1)OC(=O)NN=C2c1cnc(C2CC2)cc1C [Example 171]
IC50 [1, 3]: 13 nM
IC50 [2, 4]: < 10 nM

C[C@@H](C[C@H]1CC[C@]2(CC1)OC(=O)NN=C2c1cccc(C#N)c1Br)NC(=O)C(=O)NC1CC1 [Example 316]
IC50 [1, 3]: 46 nM
IC50 [2, 4]: 61 nM

Cc1cc(C(=O)N[C@@H](C)C[C@H]2CC[C@]3(CC2)OC(=O)NN=C3c2ccc(F)cc2)[nH]n1 [Example 5]
IC50 [1, 3]: 164 nM
IC50 [2, 4]: 171 nM

[2H]C([2H])([2H])NC(=O)C(=O)N[C@@H](C)C[C@]1(C#N)CC[C@@]2(CC1)OC(=O)NN=C2c1ccc(F)cc1Br [Example 2-134]
IC50 [1, 5]: 18 nM
IC50 [2, 6]: < 10 nM

C[C@@H](C[C@H]1CC[C@]2(CC1)OC(=O)NN=C2c1ccc(S(C)(=O)=O)cc1Br)NC(=O)c1cc2cc(F)ccc2[nH]1 [Example 32]
IC50 [1, 3]: 32 nM
IC50 [2, 4]: < 10 nM

C[C@@H](CN1CCC2(CC1)OC(=O)NN=C2c1ccc(F)cc1Cl)NC(=O)c1ncn[nH]1 [Example 95]
IC50 [1, 3]: 8060 nM
IC50 [2, 4]: 6160 nM

C[C@@H](CN1CCC2(CC1)OC(=O)NN=C2c1cc(C#N)ccc1Br)NC(=O)/C=C\C(=O)O [Example 2-047]
inhibition at 10 µM ([1]; 10 μM compound, read-out: PLD1 inhibition rate at 10 μM): 32%
inhibition at 10 µM ([1]; read-out: inhibition rate of PLD1 at 10 μM compound): 32%
inhibition at 10 µM ([2]; 10 μM compound, read-out: PLD2 inhibition rate at 10 μM): 34%
inhibition at 10 µM ([2]; read-out: inhibition rate of PLD2 at 10 μM compound): 34%

C[C@@H](C[C@H]1CC[C@]2(CC1)OC(=O)NN=C2c1ccc(F)cc1Br)NC(=O)C1(O)CC1 [Example 36]
IC50 [1, 3]: 221 nM
IC50 [2, 4]: 137 nM

C[C@@H](C[C@H]1CC[C@]2(CC1)OC(=O)NN=C2c1cc(Cl)ccc1Cl)NC(=O)c1cc2ccccn2n1 [Example 313]
IC50 [1, 3]: 23 nM
IC50 [2, 4]: 25 nM

C=C(OCC)c1ccc(C2=NNC(=O)O[C@]23CC[C@@H](C[C@H](C)NC(=O)C(=O)NC)CC3)c(C)c1 [Example 163]
IC50 [1, 3]: < 10 nM
IC50 [2, 4]: < 10 nM

CNC(=O)C(=O)N[C@@H](C)C[C@]1(O)CC[C@@]2(CC1)OC(=O)NN=C2c1ccc(F)cc1Br [Example 321]
IC50 [1, 3]: 42 nM
IC50 [2, 4]: < 10 nM

C[C@@H](C[C@H]1CC[C@]2(CC1)OC(=O)NN=C2c1ccc(F)cc1Cl)NC(=O)c1cc2cc(S(C)(=O)=O)ccc2[nH]1 [Example 62]
IC50 [1, 3]: 140 nM
IC50 [2, 4]: 223 nM

CNC(=O)C(=O)N[C@@H](C)C[C@H]1CC[C@]2(CC1)OC(=O)NN=C2c1ccc(F)cc1Cl [Example 44]
IC50 [1, 3]: 18 nM
IC50 [2, 4]: < 10 nM

Cc1cc(C(=O)N[C@@H](C)CN2CCC3(CC2)OC(=O)NN=C3c2ccc(C#N)cc2Cl)[nH]n1 [Example 169]
IC50 [1, 3]: 34 nM
IC50 [2, 4]: 20 nM

CNC(=O)C(=O)N[C@@H](C)CN1CCC2(CC1)OC(=O)NN=C2c1ccc(Cl)cc1C [Example 216]
IC50 [1, 3]: 29 nM
IC50 [2, 4]: 19 nM

C[C@@H](C[C@H]1CC[C@]2(CC1)OC(=O)NN=C2c1nccn1CC1CC1)NC(=O)c1cc2ccccc2o1 [Example 84]
IC50 [1, 3]: 70 nM
IC50 [2, 4]: 53 nM

CNC(=O)C(=O)N[C@@H](C)C[C@H]1CC[C@]2(CC1)OC(=O)NN=C2c1cnccc1Br [Example 151]
IC50 [1, 3]: 18 nM
IC50 [2, 4]: < 10 nM

Cc1cc(C(=O)N[C@@H](C)C[C@H]2CC[C@]3(CC2)OC(=O)NN=C3c2ccccc2OC(F)(F)F)[nH]n1 [Example 110]
IC50 [1, 3]: 83 nM
IC50 [2, 4]: 99 nM

Cc1cnc(C(=O)N[C@@H](C)C[C@H]2CC[C@]3(CC2)OC(=O)NN=C3c2ccc(F)cc2Br)cn1 [Example 253]
IC50 [1, 3]: 252 nM
IC50 [2, 4]: 324 nM

Cc1cc(C(=O)N[C@@H](C)C[C@H]2CC[C@]3(CC2)OC(=O)NN=C3c2cc(C#N)ccc2Br)[nH]n1 [Example 272]
IC50 [1, 3]: 15 nM
IC50 [2, 4]: < 10 nM

C[C@@H](CN1CCC2(CC1)OC(=O)NN=C2c1ccc(F)cc1Cl)NC(=O)c1cn(C)nn1 [Example 94]
IC50 [1, 3]: 68 nM
IC50 [2, 4]: 60 nM

C[C@@H](CN1CCC2(CC1)OC(=O)NN=C2c1ccc(F)cc1Br)NC(=O)NC1CC1 [Example 189]
IC50 [1, 3]: 130 nM
IC50 [2, 4]: 140 nM

C[C@@H](C[C@H]1CC[C@]2(CC1)OC(=O)NN=C2c1ccc(F)cc1C1CC1)NC(=O)c1cc(Cl)no1 [Example 65]
IC50 [1, 3]: < 10 nM
IC50 [2, 4]: < 10 nM

CNC(=O)C(=O)N[C@@H](C)C[C@H]1CC[C@]2(CC1)OC(=O)NN=C2c1cnc(OC)cc1C [Example 154]
IC50 [1, 3]: 27 nM
IC50 [2, 4]: 14 nM

Cc1cc(N2CCOCC2)ccc1C1=NNC(=O)O[C@]12CC[C@@H](C[C@H](C)NC(=O)C(=O)NC1CC1)CC2 [Example 218]
IC50 [1, 3]: 23 nM
IC50 [2, 4]: 13 nM

CNC(=O)C(=O)N[C@@H](C)C[C@H]1CC[C@]2(CC1)OC(=O)NN=C2c1cnc(N2CCC(F)(F)C2)cc1C [Example 248]
IC50 [1, 3]: 17 nM
IC50 [2, 4]: < 10 nM

CNC(=O)C(=O)N[C@@H](C)C[C@H]1CC[C@]2(CC1)OC(=O)NN=C2c1ccc(OCC(F)(F)F)cc1Br [Example 86]
IC50 [1, 3]: 13 nM
IC50 [2, 4]: < 10 nM

CNC(=O)C(=O)N[C@@H](C)CN1CCC2(CC1)OC(=O)NN=C2c1ccc(F)cc1Cl [Example 90]
IC50 [1, 3]: 45 nM
IC50 [2, 4]: 18 nM
